# Measured values reported in US8710064B2, “2-aryl-4-quinazolinones and their pharmaceutical compositions” (China Medical University, priority 2011, dated 2014).
# System: rat primary glia cells
# Assay: MTS cell viability assay, rat primary glia cells
# Format: cell-based
# Settings: 0.00625-1 μM
# Method: The human glioma cell lines U87, U251, T98G, U373, and rat glioma cell line RT2 provided by Dr. Michael Hsiao (Genomics Research Center, Academia Sinica, Taiwan) were cultured in Dulbecco's Modified Eagle medium (DMEM) (Caisson) supplemented with 10% fetal bovine serum (FBS) (Sigma-Aldrich), 2 mM L-glutamine (Caisson), 100 U/ml penicillin, and 100 μg/ml streptomycin (Caisson). The rat glioma C6 cell line provided by Dr. Shun-Fen Tzeng (National Cheng Kung University, Taiwan) was cultured in DMEM/F12 (Caisson) supplemented with 10% fetal bovine serum, 2 mM L-glutamine, 100 U/ml penicillin, and 100 μg/ml streptomycin. […] Cell proliferation was determined by MTS (tetrazolium compound, 3-(4,5-dimethylthiazol-2-yl)-5-(3-carboxymethoxyphenyl)-2-(4-sulfophenyl)-2H-tetrazolium) assay (Promega). […] The absorbance of soluble formazan was measured at 490 nm with microplate reader (Molecular device). The cell viability was determined by the percentage of the absorption relative to untreated control. […] To investigate the influence of MJ-66 on normal glia such as human glia cell line SVGP12 and rat primary glia cells, cells were treated with different concentrations of MJ-66 in vitro (0.00625, 0.0125, 0.025, 0.05, 0.1 and 1 μM) for different time durations (0, 6, 12 and 24 hours) and the cell viability was assessed by MTS assay. […]
smiles,measurement,value
"O=c1[nH]c(-c2cccc3ccccc23)nc2ccc(N3CCCC3)cc12 [Compound 23, 6-(Pyrrolidin-1-yl)-2-(naphthalen-1-yl)quinazolin-4-one]",cell viability of rat glia cells,inhibited
